The conditions of data set [1]: cited from earlier work.
For data set [2] the following is noted: mice; cited from earlier work.
For data set [3] the following is noted: in vivo; cited from earlier work.
The conditions of data set [4]: cited from earlier work. This is another data set of the same source.
Data set [5] relates to intact mice. Nature of the data set: Behavioral tests on intact animals (open field, freezing). It counts as in vivo. Conditions: for lowest dose showing antidepressant effects: intact mice, preliminary experiments (unpublished observations); for effect in behavioral tests, individually: mouse, in vivo. The method, then: The trials were performed at the Department of Clinical and Experimental Medicine of the University of Foggia according to the following rationale. • 1. In the present mouse model of beta-amyloid toxicity, using validated tests in mice, we evaluated the behaviors: • a. antidepressant: Tail Suspension Test (TST); Forced Swimming Test (FST); Splash Test (ST) with latency time (sec) and self-care (sec) measurement. • b. antianxiety: Open Field Test with measurement of distance traveled (m), time spent in the wall (sec), time spent in the center (sec), center entries (n); Freezing Test (sec). • c. on memory, learning, coordination of motor skills, fear conditioning: Rotarod Test with measure of Latency to Fall, repeated after training to evaluate motor learning. • 2. We tested the protective effects with the following procedure: • a. individually: βCP, FE, βBA, DHA and HA4; • b. in association with pairs: βCP+HA4, FE+HA4, βBA+HA4, FE+βCP, βBA+FE, βBA+βCP. • c. in association, all four together: βCP+FE+βBA+HA4 • d. versus control (SHAM), • e. using the mouse model of an Aβ-induced depressive phenotype. • 3. These behavioral tests were integrated with serotonin, dopamine, noradrenaline and their metabolites prefrontal cortex and hippocampus measurement. • 4. Furthermore, we evaluated the cortical and hippocampal glutamate (GLU) levels in mice treated with AP and subsequently we tested the ability of βCP, FE, βBA and HA4, to modulate this neurochemical parameter.
βCP, FE e βBA (Merck, Cayman Chemical Company) was dissolved in sunflower oil, this vehicle was chosen in order to maintain a better tasting and higher density of the final solution thus reducing reflux through the digestive tract.
(§1) Ten μl of the solution (or vehicle alone) were administered sublingually to mice. Brain βCP, FE e βBA were quantified in a separate subset of mice at 5, 15 and 30 min after their administration.
Open Field Test. Mice were placed in an open field arena and allowed to explore for 30 min [Lama A et al. 2021]. After each trial, the arena floor was cleaned with 70% ethanol to avoid inter-assay bias. The movements of mice were video recorded and analyzed by ANY-maze tracking software (Ugo Basile-Varese, Gemonio, Italy). Locomotion was evaluated through total crossing measurements.

Data set [6] relates to mice treated with Aβ icv. The experiment in a line: Splash test in SHAM mice and mice treated with Aβ icv (FIG. 4). It counts as in vivo. Conditions: after 7 days, HA4 200 μg, βCP 50 μg, βBA 100 μg, FE 50 μg sublingually. The method, then: (§2) The Aβ1-42, obtained from Tocris (Bristol, UK), was dissolved in sterile double-distilled pyrogenic-free water, as vehicle, to obtain a final concentration 4 μM [Colaianna M et al. 2010]. Mice were anesthetized with a solution (0.85 in ml/kg, i.p.), containing ketamine (Sigma Aldrich, Milan, Italy, 100 mg/10 ml), xylazine (Sigma Aldrich, Milan, Italy, 100 mg/10 ml) and acepromazine (prequillant, ATI Azienda Terapeutica Veterinaria Srl, 10 mg/10 ml) dissolved in saline solution. […] At the time of dissection, the correct needle track was assessed. […]
as §1
All behavioral experiments were conducted at 5 or 30 min after sublingual administrations of βBA or vehicle in mice treated with SHAM or AP. Based on the observed behavioral results, neurochemical and biochemical quantifications were performed 30 min after administration of βCP, FE, and βBA or vehicle in SHAM- or Aβ-treated mice.
Splash test. […] The test was videotaped and later an observer, blind to the trial, scored for latency to the first grooming event and duration of self-care behavior during the period of the test (5 min).

The test system of data set [7] is dopamine (DA). The experiment in a line: Dopamine (DA) levels in Aβ icv-treated mice (FIG. 5c). The data set is classed as in vivo. Conditions: HIPP.
For data set [8] the following is noted: mice, cited from earlier work.
The subject of data set [9] is kynurenine (KYN). The experiment in a line: Kynurenine levels in mice treated with Aβ icv (FIG. 6). Conditions: prefrontal cortex and hippocampus, HA4 0.2 mg/mouse. The data set is classed as in vivo. The method, then:
as §2, with “solution. Animals were secured in a stereotaxic frame (David Kopf Instruments, Tujunga, CA, USA) and the peptide injection was accomplished in the lateral ventricle of mice at the following coordinates: AP=−0.2, ML=+1 e DV=2 relative to bregma, according to the atlas of Paxinos and Franklin [Paxinos G and Franklin K B J 2019].” for “solution.”
(§3) 5-HT, noradrenaline (NA), and KYN levels were measured in the PFC and HIPP of mice by HPLC coupled with an electrochemical detector (Ultimate ECD, Thermo Scientific Dionex, Milan, Italy) as already reported [Francavilla M et al. 2012, Morgese M G et al. 2016]. […] GLU concentrations were determined by HPLC coupled with fluorescence detection (emission length 460 nm; excitation length 340 nm), as previously published [Francavilla M et al. 2012]. […]

The test system of data set [10] is glutamate (GLU). Nature of the data set: Glutamate levels in mice treated with Aβ icv (FIG. 7). The data set is classed as in vivo. Conditions: after 7 days. The method, then: as §2, with “solution. Animals were secured in a stereotaxic frame (David Kopf Instruments, Tujunga, CA, USA) and the peptide injection was accomplished in the lateral ventricle of mice at the following coordinates: AP=−0.2, ML=+1 e DV=2 relative to bregma, according to the atlas of Paxinos and Franklin [Paxinos G and Franklin K B J 2019].” for “solution.”
as §3

The subject of data set [11] is CD11b. The experiment in a line: CD11b protein levels in mice treated with Aβ icv, Western blotting (FIG. 8). It counts as in vivo. The following applies: PFC and HIPP, HA4 0.2 mg/mouse.
Description: (§4) The total amount of proteins was measured in homogenates by using Pierce BCA Assay (Thermo Fisher Scientific, Cleveland, OH, USA). […] After HRP-conjugated specific antibody incubation, ECL reagent (Bio-Rad Laboratories Inc., Segrate (MI), Italy) was added to the immune complex and chemiluminescence was detected by ChemiDoc MP system (Bio-Rad Laboratories Inc., Segrate (MI), Italy). Optical densities of the bands were measured using Image J software (http://rsb.info.nih.gov/ij/ accessed on 15 Mar. 2021) and normalized against bands relative to -actin (1:5,000, Abcam, Cambridge, UK).
Data set [12] relates to GFAP. Nature of the data set: GFAP protein levels in mice treated with Aβ icv, Western blotting (FIG. 9). It counts as in vivo. Conditions: PFC and HIPP, HA4 0.2 mg/mouse. (A western blot detects proteins with antibodies after separation by electrophoresis.)
Description: as §4
The conditions of data set [13]: healthy volunteers, via os, cited from earlier work.
For data set [14] the following is noted: Weber C C et al. 2006; cited from earlier work.
The conditions of data set [15]: cited from earlier work. The source holds these as a separate data set.
For data set [16] the following is noted: cited from earlier work. The source holds these as a separate data set.
Data set [17] can be described thus: Pharmacokinetics of βBA and AKBA via os in healthy volunteers, fasted and hyperlipidic meal (Sterk V et al. 2004). The data set is classed as in vivo, humans. Conditions: healthy volunteers. The text has this: Indeed, βBA has a concentration in the blood: • at least 6 times higher than AKBA both in the fasting condition and with a hyperlipidic meal; • increased by 6 times after hyperlipidic meal so that the plasma/os ratio passes from 0.09 to 0.55.

Data set [18] is described as follows: Plasma and brain levels of βBA and AKBA via os in mice (Gerbeth K et al. 2013). The data set is classed as in vivo. The text has this: βBA appears not to undergo blood-brain barrier. According to the data of Gerbeth K et al. 2013, brain levels of AKBA were very low, resulting 0.4 per AKBA in the brain/plasma ratio (but 0.81 according to Weber C C et al. 2006). In contrast, the § BA concentration in the brain was even higher than that found in the blood with 32% increase (See Table 1).

Setting [19] is: intact animals, hyaluronic acid only (FIG. 3).

The values below come from patent US20260115162A1, “COMPOSITION OR ASSOCIATION OF COMPOUNDS PREFERABLY FOR USE IN THE TREATMENT OF NERVOUS DISEASES IN PARTICULAR NEURODEGENERATIVE DISEASES, METHOD FOR THE PREPARATION OF SUCH COMPOSITION OR ASSOCIATION OF COMPOUNDS AND USES THEREOF” (PHARMACEUTICA SAN MARCO S.R.L., priority 2022, published 2026).

“Also recorded” adds a separate entry of the source. Like-named read-outs stand apart in the source and are kept apart here. Some results are limits rather than exact numbers.

For `CC/C=C\C/C=C\C/C=C\C/C=C\C/C=C\C/C=C\CCC(=O)O` [DHA, docosahexaenoic acid], in data set [1] (adult humans), the harmless dose result is “at least 7.5 g/day”. Also, the results for the safe dose entry in data set [1] (children) and in data set [2] were “at least 315 mg/day” and at most 3.2 g/kg/day, respectively.

As usually defined, the LD50 is the dose expected to kill half of the subjects tested. Take `C=C1CC/C=C(\C)CC[C@@H]2[C@@H]1CC2(C)C` [βCP, β-caryophyllene]: the “toxic dose (category 5 substance, OECD guidelines)” value in data set [3] is given as “greater than 2,000 mg/kg”. Further, the pathological changes entry in [4] (mice, 100 mg/kg i.p.) is “no evidence of pathological changes”. Further, the LD50 in [4] (mouse, in vivo, ip) is recorded as 316 mg/kg. In data set [5], the “lowest dose showing antidepressant effects” value is reported as 5 mg/kg; the “effect in behavioral tests, individually” value was “antidepressant and anxiolytic effect”. In data set [6], the “Splash test latency time (antidepressant effect)” value is recorded as “antidepressant effect”. For the same molecule, the “Dopamine (DA) levels” value in data set [7] is “increase in dopaminergic activity in HIPP”.

As to Hyaluronic acid, the results for the median lethal dose (LD50) in [8] (intraperitoneum), in data set [8] (subcutaneous) and in data set [8] (via os) were 1,500 mg/kg, > 4,000 mg/kg and > 2,400 mg/kg, respectively.

As for `CC(=O)N[C@H]1[C@H](O[C@H]2[C@H](O)[C@@H](O)[C@H](O[C@H]3[C@H](O)[C@@H](CO)OC(O)[C@@H]3NC(C)=O)O[C@@H]2C(=O)O)O[C@H](CO)[C@@H](O)[C@@H]1O[C@@H]1O[C@H](C(=O)O)[C@@H](O)[C@H](O)[C@H]1O` (stereo partly shown) [HA4, hyaluronic acid HA4 tetrasaccharide], in data set [5] (setting [19]), the freezing result was “clear anxiolytic and antidepressant effect”; the locomotor activity result was “does not create deficits in the animal's locomotor activity”. Further, the “effect in behavioral tests, individually” value in [5] was “antidepressant and anxiolytic effect”. The Kynurenine levels result in [9] is “significant reduction”. The Glutamate levels entry in [10] is listed as “increase in glutamate”. Further, in [11], the CD11b protein levels entry is “Significant reduction of CD11b in both PFC and HIPP”. The GFAP protein levels result in [12] was “significant reduction; also recorded: removes GFAP alterations in both PFC and HIPP”.

Take `CC(=O)O[C@@H]1CC[C@@]2(C)[C@@H](CC[C@]3(C)[C@@H]2C(=O)C=C2[C@@H]4[C@@H](C)[C@H](C)CC[C@]4(C)CC[C@]23C)[C@@]1(C)C(=O)O` [AKBA, acetyl-11-keto-beta-boswellic acid]: the “concentration in the plasma” value is 6 fasted ng/g o ng/ml in data set [13] (fasted conditions); 28 hyperlipidic ng/g o ng/ml in data set [13] (hyperlipidic fed conditions); 93 ng/g o ng/ml in data set [15] (mice, via os); 0-15 ng/g o ng/ml in data set [16] (patients, via os). For the same molecule, the brain/plasma ratio in data set [14] is 0.81; in data set [15] (Gerbeth K et al. 2013) it was 0.4. In addition, the “reduction of blood concentration compared to the dose introduced orally” value in data set [15] (mice, via os, intestinal mucosa to blood) was 80 times. Further, the “concentration in the brain” value in data set [15] (mice, via os) was 37.5 ng/g o ng/ml. In [15] (mice), the “reduction of concentration when crossing the blood-brain barrier” value is given as “more than twice”. The blood concentration in data set [16] (80 mg AKBA to 13 patients, found in only one of them) is 15.5 ng/mL. Further, the Δos/plasma in data set [17] (fasted conditions) was found to be 68 fasted; in [17] (hyperlipidic fed conditions), 15 hyperlipidic; in [18] it was 82. Besides, the Δos/brain in data set [18] is listed as 204. In [18], this molecule came in with a Δplasma/brain of 2.5.

`CC1=CC=C[C@]2(C)Cc3occ(C)c3C[C@@H]12` [FE, furanoeudesma-1,3-diene]: in data set [5], the “lowest dose showing antidepressant effects” value turned out to be 5 mg/kg; the “effect in behavioral tests, individually” value was “antidepressant and anxiolytic effect”.
